Laboratory results: patent publication US11419801B2, “Personal care composition” (Conopco, Inc., priority 2017, dated 2022)

Tested on: IL-6
Assay: Anti-inflammation efficacy in THP-1 in vitro assay: IL-6 in supernatant of PMA-differentiated, LPS-stimulated THP-1 monocytes (BD Elisa kit)
Assay type: cell-based
Details: for % of LPS (IL-6): DHA, concentration per example; for concentration of IL-6 as a % of that obtained for LPS (% of LPS): Table 1, LPS 1 μg/ml, 24 hours incubation, concentration of active(s) as given per example, lower = higher anti-inflammatory potential
Method: The following procedure was used to test the anti-inflammation efficacy of the various actives alone as well as in combination. In the examples, HR means hexyl resorcinol, DHA means docosahexaenoic acid. • (i) 5×10^5 THP-1 monocytes were placed into 24-well plates, with 100 nM […] in the culture media to differentiate the cells. • (ii) After 72 hours differentiation, treatments as follows were applied to the cells. […] (2) LPS-1 μg/ml; (3) Dex-50 nM; (4) DHA-200 μM; (5) DHA-100 μM; (6) DHA-20 μM; (7) HR-50 μM; (8) HR-25 μM; (9) HR-100 μM; […] (11) DHA-100 μM+HR-50 μM; (12) DHA-100 μM+HR-25 μM; (13) DHA-20 μM+HR-100 μM (14) DHA-20 μM+HR-10 μM. • (iii) After 24 hours incubation the supernatants were collected. • (iv) Then IL-6 concentration was tested in the supernatant by BD Elisa kit. The lower the percentage, the higher the anti-inflammatory potential. […] Further information about the experiment nos 12 to 24 is as follows: • Example 12: […] Combination of 50 μM DHA and 12.5 μM of HR. • Example 23: […] Combination of 50 μM DHA and 12.5 μM of ZnCl2. • Example 31: […] Combination of 12.5 μM DHA and 3.125 μM of ZnCl2. Experiments were carried out, according to the procedure described earlier, at various concentrations of DHA along with certain other actives outside the invention viz. BOP (benzoyl peroxide) and SDS (sodium dodecyl sulphate). These actives have been disclosed as additional ingredients in EP0138480 A1. The data below is expressed in % IL-6 inhibition rate in Table-3 below. • Example 33, 34, 35, 36: […] Combination of 50 μM DHA and 12.5 μM of BPO. • Example 43: […] Combination of 12.5 μM DHA and 3.125 μM of BPO. • Example 45, 46, 47, 48: […] Combination of 50 μM DHA and 12.5 μM of SDS. • Example 51: […] Combination of 12.5 μM DHA and 3.125 μM of SDS.

[1] = Table 3, LPS 1 μg/mL, BPO, SDS alone and combined
[2] = Table 3, LPS 1 μg/mL, BPO, SDS alone and combined, sulphate
[3] = Table 2, LPS 1 μg/mL, HR, ZnCl2 alone and combined

Structure (SMILES): CC/C=C\C/C=C\C/C=C\C/C=C\C/C=C\C/C=C\CCC(=O)O [Example 34, docosahexaenoic acid]
- % of LPS (IL-6) [1]: 36.0%

Structure (SMILES): CC/C=C\C/C=C\C/C=C\C/C=C\C/C=C\C/C=C\CCC(=O)O [Example 2, docosahexaenoic acid]
- concentration of IL-6 as a % of that obtained for LPS (% of LPS): 14.7%

Structure (SMILES): CCCCCCCCCCCCOS(=O)(=O)[O-].[Na+] [Example 45, sodium dodecyl sulphate]
- % of LPS (IL-6) [2]: 84.6%

Structure (SMILES): CCCCCCc1ccc(O)cc1O [Example 18, hexyl resorcinol]
- % of LPS (IL-6) [3]: 55.4%

Structure (SMILES): CC/C=C\C/C=C\C/C=C\C/C=C\C/C=C\C/C=C\CCC(=O)O [Example 14, docosahexaenoic acid]
- % of LPS (IL-6) [3]: 29.0%

Structure (SMILES): O=C(OOC(=O)c1ccccc1)c1ccccc1 [Example 39, benzoyl peroxide]
- % of LPS (IL-6) [1]: 102.7%

Structure (SMILES): CCCCCCc1ccc(O)cc1O [Example 19, hexyl resorcinol]
- % of LPS (IL-6) [3]: 60.3%

Structure (SMILES): CCCCCCc1ccc(O)cc1O [Example 20, hexyl resorcinol]
- % of LPS (IL-6) [3]: 66.4%

Structure (SMILES): [Cl-].[Cl-].[Zn+2] [Example 26, Zinc chloride]
- % of LPS (IL-6) [3]: 96.3%

Structure (SMILES): [Cl-].[Cl-].[Zn+2] [Example 28, Zinc chloride]
- % of LPS (IL-6) [3]: 91.6%

Structure (SMILES): O=C(OOC(=O)c1ccccc1)c1ccccc1 [Example 40, benzoyl peroxide]
- % of LPS (IL-6) [1]: 95.1%

Structure (SMILES): CCCCCCCCCCCCOS(=O)(=O)[O-].[Na+] [Example 48, sodium dodecyl sulphate]
- % of LPS (IL-6) [2]: 80.5%

Structure (SMILES): CCCCCCCCCCCCOS(=O)(=O)[O-].[Na+] [Example 46, sodium dodecyl sulphate]
- % of LPS (IL-6) [2]: 86.1%

Structure (SMILES): CCCCCCc1ccc(O)cc1O [Example 4, hexyl resorcinol]
- concentration of IL-6 as a % of that obtained for LPS (% of LPS): 41.1%

Structure (SMILES): CC/C=C\C/C=C\C/C=C\C/C=C\C/C=C\C/C=C\CCC(=O)O [Example 36, docosahexaenoic acid]
- % of LPS (IL-6) [1]: 72.0%

Structure (SMILES): CC/C=C\C/C=C\C/C=C\C/C=C\C/C=C\C/C=C\CCC(=O)O [Example 3, docosahexaenoic acid]
- concentration of IL-6 as a % of that obtained for LPS (% of LPS): 58.5%

Structure (SMILES): CC/C=C\C/C=C\C/C=C\C/C=C\C/C=C\C/C=C\CCC(=O)O [Example 35, docosahexaenoic acid]
- % of LPS (IL-6) [1]: 56.8%

Structure (SMILES): O=C(OOC(=O)c1ccccc1)c1ccccc1 [Example 38, benzoyl peroxide]
- % of LPS (IL-6) [1]: 100.6%

Structure (SMILES): O=C(OOC(=O)c1ccccc1)c1ccccc1 [Example 37, benzoyl peroxide]
- % of LPS (IL-6) [1]: 103.4%

Structure (SMILES): CC/C=C\C/C=C\C/C=C\C/C=C\C/C=C\C/C=C\CCC(=O)O [Example 16, docosahexaenoic acid]
- % of LPS (IL-6) [3]: 63.1%

Structure (SMILES): CCCCCCc1ccc(O)cc1O [Example 6, hexyl resorcinol]
- concentration of IL-6 as a % of that obtained for LPS (% of LPS): 41.1%

Structure (SMILES): CC/C=C\C/C=C\C/C=C\C/C=C\C/C=C\C/C=C\CCC(=O)O [Example 13, docosahexaenoic acid]
- % of LPS (IL-6) [3]: 9.9%

Structure (SMILES): CCCCCCc1ccc(O)cc1O [Example 7, hexyl resorcinol]
- concentration of IL-6 as a % of that obtained for LPS (% of LPS): 63.1%

Structure (SMILES): [Cl-].[Cl-].[Zn+2] [Example 25, Zinc chloride]
- % of LPS (IL-6) [3]: 93.4%

Structure (SMILES): CCCCCCc1ccc(O)cc1O [Example 17, hexyl resorcinol]
- % of LPS (IL-6) [3]: 43.0%

Structure (SMILES): CC/C=C\C/C=C\C/C=C\C/C=C\C/C=C\C/C=C\CCC(=O)O [Example 15, docosahexaenoic acid]
- % of LPS (IL-6) [3]: 48.8%

Structure (SMILES): [Cl-].[Cl-].[Zn+2] [Example 27, Zinc chloride]
- % of LPS (IL-6) [3]: 97.7%

Structure (SMILES): CCCCCCc1ccc(O)cc1O [Example 5, hexyl resorcinol]
- concentration of IL-6 as a % of that obtained for LPS (% of LPS): 54.5%

Structure (SMILES): CCCCCCCCCCCCOS(=O)(=O)[O-].[Na+] [Example 47, sodium dodecyl sulphate]
- % of LPS (IL-6) [2]: 81.3%

Structure (SMILES): CC/C=C\C/C=C\C/C=C\C/C=C\C/C=C\C/C=C\CCC(=O)O [Example 33, docosahexaenoic acid]
- % of LPS (IL-6) [1]: 10.7%
